From patent US20080319001A1, “Cancer Treatment Using Specific 3,6,9-Substituted Acridines” (priority 2005, published 2008)
Read-outs that look alike come from different tables or passages of the source.

Tests used:
[1] = pKa measurement (Sirius GlpKa, potentiometric and UV titration); format: physicochemical
Description: Pka determination was performed on a Sirius GlpKa instrument equipped with a D-PAS (Dip-Probe Absorption Spectroscopy) attachment. Measurements were made by potentiometric and UV titration in MeOH:H2O mixtures at 25° C. The titration media was ionic strength adjusted with 0.15 M KCl. The values found in the MeOH:H2O mixtures were extrapolated to 0% co-solvent via a Yasuda-Shedlovsky extrapolation. Prediction of pKa values was made using ACD v8.07 software.
BSG01-4.14 from aqueous UV measurement (Potentiometry gave 4.15 although incomplete curves were collected). Other values from potentiometric in Aqueous/MeOH mixtures followed by Yasuda-Shedlovsky extrapolation to 0% MeOH. All pKas basic from slope of extrapolation. P BSG17—Values from potentiometric titrations in Aqueous/MeOH mixtures followed by Yasuda-Shedlovsky extrapolation to 0% MeOH. All pKas basic from slop of extrapolation. PKas 2 and 3 for titration in 30% MeOH removed from YS extrapolation due to precipitation.

[2] = Pharmacokinetic evaluation in mice (plasma kinetics); format: in vivo, mouse; conditions: for AUC(0-t): female, MF1, mouse; for Cmax / clearance / half-life: mouse, female MF1 mice; for half-life: single dose (1 mg/kg iv or 20 mg/kg oral; route not stated with values)
Description: The test article is identified as BSG17 and has been studied in comparison to BSG01 (BRACO-19). The vials containing bulk test article were stored at room temperature (15-30° C.).
The test compound was reconstituted in 0.9% physiological saline B.P. to the required final concentrations. To ensure the stability of the test formulations, prepared formulations were administered within two hours of preparation.
Treated mice received a single bolus intravenous injection or oral gavage of the test formulations at a dose-volume of […] bodyweight. Control mice were untreated.
The mouse was selected because it is a rodent species and is acceptable to the regulatory authorities for pharmacokinetic studies. Dose levels of 1 mg/kg (intravenous) and 20 mg/kg (oral) were selected for this study.
Female MF1 mice in the weight rang of 26-30 g (6 to 8 weeks of age) were obtained from the BRF Facility, SGHMS/Harlan UK, Bicester and were individually identified using a permanent tail mark (using a non-toxic marker pen). The test article was administered to thirty-six (36) mice after a period of seven (7) days of acclimatisation to the study room.
Blood samples were obtained from three mice per time point and at the time points as specified below:
Blood samples were collected by cardiac puncture with mice held under deep halothane anaesthesia. After sampling mice were euthanased by cervical dislocation.
Samples were collected into pre-heparinised syringes and the samples transferred into 1 ml eppendorf tubes. Plasma was prepared by centrifugation, transferred to clean, labelled eppendorf tubes and frozen at approximately −20° C. pending analysis.
Samples were analysed using HPLC or GC-MS/MS methodology.
Composite plasma concentration time curves were generated over the period of 6-8 hours after the bolus iv or oral dose was administered.

[3] = Cytotoxicity / growth inhibition, DU145; format: cell-based; conditions: human, DU145 cells; read-out: Cytotoxic IC50 vs. DU145
Thermodynamic solubility = format: physicochemical; conditions: for solubility at 24 h: thermodynamic from solid, read-out: Solubility Free Base equivalent
Description: Thermodynamic solubility values were determined in each of 0.1M HCl, Deionised water, pH6.8 phosphate buffer, 0.9% saline and 5% dextrose.
1.25-1.5 mg of sample was weighed out into a 1 ml HPLC tube to which 0.25 ml of the dissolution media was added to allow for determination of solubility up to 5 mg/ml. This suspension was then shaken for 24 hours before measurement of the pH, filtration (through a 96 well plate with a glass fibre filter membrane), dilution and analysis of the neat and diluted solutions at different injection volumes on a generic 5 minute HPLC method.
A reference solution was prepared in DMSO for comparison and calculation of the test solubilities. XRPD patterns were measured of remaining solids from experiments where complete dissolution was not achieved.
It is believed the large additional peak noted in the HPLC chromatograms is due to a rotamer of the parent compound. This should therefore be included in the overall peak area assessment. Therefore, the largest and second largest peaks noted in the reference solution were added together as were the same peaks (i.e. the same retention times) in the test sample injections.

HPLC solution stability = format: physicochemical
Description: Due to the generally low solubility of these compounds in 0.9% NaCl and 5% dextrose it was decided to mix these media with 50% Iso-propanol (IPA) to maintain full dissolution of the compound during these studies.
The remaining 5 mg/ml DMSO stock solution from the pKa determination was used for the stability studies. This solution had been stored in the fridge for several days before these stability studies. A solution with a concentration of 0.1 mg/ml was prepared for each experiment (50 fold dilution of DMSO stock). Stability trials were carried out at 4° C. (fridge) and 25° C. (on top of shaker at 25° C.) and at time points of 0, 1 and 7 days. In the case of 100% IPA data was collected at 0, 1 and 14 days after storage at 25° C. The HPLC purity method discussed in section 4.5 below was used for purity analysis. The largest and second largest peaks were added together due to separation of rotamers as discussed above.

[4] = UV + Pot, 25° C., 0.15 M KCl, read-out: Measured pKa, pKa1
[5] = potentiometric in aqueous/MeOH, Yasuda-Shedlovsky extrapolation to 0% MeOH, read-out: Measured pKa, pKa2
[6] = potentiometric in aqueous/MeOH, Yasuda-Shedlovsky extrapolation to 0% MeOH, read-out: Measured pKa, pKa3
[7] = 0.9% saline, saline or isotonic, 0.9% NaCl, 24 hours
[8] = aqueous buffer, pH 6.8 phosphate buffer, 24 hours
[9] = deionised water, Water, 24 hours
[10] = saline or isotonic, 5% Dextrose, 24 hours
[11] = simulated gastric fluid, 0.1M HCl, 24 hours
[12] = 0.9% NaCl mixed with 50% IPA, 0 days
[13] = 0.9% NaCl mixed with 50% IPA, 1 day, 4 ° C.
[14] = 0.9% NaCl mixed with 50% IPA, 1 day, 25 ° C.
[15] = 0.9% NaCl mixed with 50% IPA, 7 days, 4 ° C.
[16] = 0.9% NaCl mixed with 50% IPA, 7 days, 25 ° C.
[17] = 5% Dextrose mixed with 50% IPA, 0 days
[18] = 5% Dextrose mixed with 50% IPA, 1 day, 4 ° C.
[19] = 5% Dextrose mixed with 50% IPA, 1 day, 25 ° C.
[20] = 5% Dextrose mixed with 50% IPA, 7 days, 4 ° C.
[21] = 5% Dextrose mixed with 50% IPA, 7 days, 25 ° C.

## O=C(CCN1CCCC1)Nc1ccc2c(NCc3ccc(F)c(F)c3)c3ccc(NC(=O)CCN4CCCC4)cc3nc2c1 [BSG17, N-(9-(3,4-Difluoro-benzylamino)-6-(3-pyrolidin-1-yl-propionamide)-acridin-3-yl)-3-pyrrolidin-1-yl-propionamide]
[1]; [4]
  pKa: 8.17
[1]; [5]
  pKa: 9.09
[1]; [6]
  pKa: 9.61
[2]; Table 3
  AUC(0-t): 1.23 µM·h
[2]; unit inferred
  AUC(0-t): 1.23 µM·h
[2]
  Cmax: 1700 nM
  clearance: 0.667 mL/min
  half-life: 2.1 h
[3]
  IC50 at 96 h: 9.75 µM
Thermodynamic solubility; 0.1M HCl
  PH of unfiltered Saturated solution: 1.12
Thermodynamic solubility; 0.9% NaCl
  PH of unfiltered Saturated solution: 8.81
Thermodynamic solubility; [7]
  solubility at 24 h: < 1 µg/mL
Thermodynamic solubility; 5% Dextrose
  PH of unfiltered Saturated solution: 7.96
Thermodynamic solubility; Water
  PH of unfiltered Saturated solution: 8.34
Thermodynamic solubility; [8]
  solubility at 24 h: 1950 µg/mL
Thermodynamic solubility; [9]
  solubility at 24 h: 20 µg/mL
Thermodynamic solubility; pH 6.8 phosphate buffer
  PH of unfiltered Saturated solution: 7.49
Thermodynamic solubility; [10]
  solubility at 24 h: 300 µg/mL
Thermodynamic solubility; [11]
  solubility at 24 h: > 5000 µg/mL
HPLC solution stability; [12]
  Combined rotamer purity: 89.4
  Purity larger rotamer peak: 61.4
  Purity smaller rotamer peak: 28.0
HPLC solution stability; [13]
  Combined rotamer purity: 85.1
  Purity larger rotamer peak: 58.4
  Purity smaller rotamer peak: 26.8
HPLC solution stability; [14]
  Combined rotamer purity: 82.4
  Purity larger rotamer peak: 55.9
  Purity smaller rotamer peak: 26.5
HPLC solution stability; [15]
  Combined rotamer purity: 61.0
  Purity larger rotamer peak: 39.2
  Purity smaller rotamer peak: 21.8
HPLC solution stability; [16]
  Combined rotamer purity: 54.5
  Purity larger rotamer peak: 33.8
  Purity smaller rotamer peak: 20.8
HPLC solution stability; [17]
  Combined rotamer purity: 88.5
  Purity larger rotamer peak: 60.7
  Purity smaller rotamer peak: 27.8
HPLC solution stability; [18]
  Combined rotamer purity: 83.8
  Purity larger rotamer peak: 56.9
  Purity smaller rotamer peak: 26.9
HPLC solution stability; [19]
  Combined rotamer purity: 78.0
  Purity larger rotamer peak: 52.4
  Purity smaller rotamer peak: 25.6
HPLC solution stability; [20]
  Combined rotamer purity: 53.2
  Purity larger rotamer peak: 32.5
  Purity smaller rotamer peak: 20.7
HPLC solution stability; [21]
  Combined rotamer purity: 39.4
  Purity larger rotamer peak: 22.3
  Purity smaller rotamer peak: 17.1
HPLC solution stability; 100% IPA, 0 days
  Combined rotamer purity: 84.6
  Purity larger rotamer peak: 58.8
  Purity smaller rotamer peak: 25.8
HPLC solution stability; 100% IPA, 1 day, 25 ° C.
  Combined rotamer purity: 81.5
  Purity larger rotamer peak: 56.6
  Purity smaller rotamer peak: 25.0
HPLC solution stability; 100% IPA, 14 days, 25 ° C.
  Combined rotamer purity: 77.2
  Purity larger rotamer peak: 52.7
  Purity smaller rotamer peak: 24.5

## CN(C)c1ccc(Nc2c3ccc(NC(=O)CCN4CCCC4)cc3nc3cc(NC(=O)CCN4CCCC4)ccc23)cc1 [BSG01]
[1]; [4]
  pKa: 4.15
[1]; aqueous UV, read-out: pKa from aqueous UV measurement
  pKa: 4.14
[1]; [5]
  pKa: 8.14
[1]; [6]
  pKa: 9.08
[1]; potentiometric in aqueous/MeOH, Yasuda-Shedlovsky extrapolation to 0% MeOH, read-out: Measured pKa, pKa4
  pKa: 9.31
[1]; titration medium, ionic strength adjusted with 0.15 M KCl, potentiometry, incomplete curves, read-out: pKa from potentiometry
  pKa: 4.15
[2]; Table 3
  AUC(0-t): 0.96 µM·h
[2]; unit inferred
  AUC(0-t): 0.96 µM·h
[2]
  Cmax: 1900 nM
  clearance: 1 mL/min
  half-life: 1.1 h
[3]
  IC50 at 96 h: 2.3 µM
Thermodynamic solubility; 0.1M HCl
  PH of unfiltered Saturated solution: 1.25
Thermodynamic solubility; 0.9% NaCl
  PH of unfiltered Saturated solution: 9.80
Thermodynamic solubility; [7]
  solubility at 24 h: < 1 µg/mL
Thermodynamic solubility; 5% Dextrose
  PH of unfiltered Saturated solution: 8.26
Thermodynamic solubility; Water
  PH of unfiltered Saturated solution: 8.66
Thermodynamic solubility; Water, 24 hours
  Solubility Free Base equivalent: <1 µg/mL
Thermodynamic solubility; [8]
  solubility at 24 h: 2630 µg/mL
Thermodynamic solubility; [9]
  solubility at 24 h: < 1 µg/mL
Thermodynamic solubility; pH 6.8 phosphate buffer
  PH of unfiltered Saturated solution: 7.45
Thermodynamic solubility; [10]
  solubility at 24 h: 220 µg/mL
Thermodynamic solubility; [11]
  solubility at 24 h: > 5000 µg/mL
HPLC solution stability; [12]
  Combined rotamer purity: 95.4
  Purity larger rotamer peak: 89.8
  Purity smaller rotamer peak: 5.7
HPLC solution stability; [13]
  Combined rotamer purity: 95.7
  Purity larger rotamer peak: 86.8
  Purity smaller rotamer peak: 8.9
HPLC solution stability; [14]
  Combined rotamer purity: 93.5
  Purity larger rotamer peak: 82.3
  Purity smaller rotamer peak: 11.2
HPLC solution stability; [15]
  Combined rotamer purity: 66.8
  Purity larger rotamer peak: 47.5
  Purity smaller rotamer peak: 19.4
HPLC solution stability; [16]
  Combined rotamer purity: 47.6
  Purity larger rotamer peak: 35.1
  Purity smaller rotamer peak: 12.5
HPLC solution stability; [17]
  Combined rotamer purity: 94.8
  Purity larger rotamer peak: 88.7
  Purity smaller rotamer peak: 6.1
HPLC solution stability; [18]
  Combined rotamer purity: 94.5
  Purity larger rotamer peak: 84.5
  Purity smaller rotamer peak: 10.00
HPLC solution stability; [19]
  Combined rotamer purity: 94.5
  Purity larger rotamer peak: 79.5
  Purity smaller rotamer peak: 15.0
HPLC solution stability; [20]
  Combined rotamer purity: 79.3
  Purity larger rotamer peak: 48.4
  Purity smaller rotamer peak: 30.9
HPLC solution stability; [21]
  Combined rotamer purity: 68.0
  Purity larger rotamer peak: 35.2%
  Purity smaller rotamer peak: 32.8
HPLC solution stability; 100% IPA, 0 days
  Combined rotamer purity: 91.9
  Purity larger rotamer peak: 86.4
  Purity smaller rotamer peak: 5.5
HPLC solution stability; 100% IPA, 1 day, 25 ° C.
  Combined rotamer purity: 93.2
  Purity larger rotamer peak: 87.2
  Purity smaller rotamer peak: 6.0
HPLC solution stability; 100% IPA, 14 days, 25 ° C.
  Combined rotamer purity: 94.0
  Purity larger rotamer peak: 82.8
  Purity smaller rotamer peak: 11.2
